Peptide text beside a SMILES is read from it. * marks the point of attachment. X68 = O=C1C=CC(=O)N1c1ccccc1CCCCCCCCCCCC(=O)*; X60 = O=C1C=CC(=O)N1c1ccccc1CCCCCCCCCC(=O)*; X52 = O=C1C=CC(=O)N1c1ccccc1CCCCCCCC(=O)*
What was measured:
[1] = test system: choroidal neovascularization; experiment: Choroidal neovascularization in rats (laser photocoagulation, FFA); type: in vivo; conditions: BN rats
Protocol: 6-8 weeks male BN rats were fully anesthetized by intraperitoneal injection of 846 compound anesthetic with a concentration of 0.5 mL/kg. Compound tropicamide eye drops were used once 5 min before laser photocoagulation to fully dilate the pupils of both eyes. The animals were fixed and subjected to krypton laser photocoagulation equidistantly around an optic disc with the aid of a −53.00D corneal contact lens at a distance of 2PD from the optic disc. A total of 8 photocoagulation spots were obtained. The laser wavelength was 647.1 nm, the power was 350 mW, and the diameter and time of the photocoagulation spots were 50 μm and 0.05 s respectively. Fundus photography was performed immediately after photocoagulation. FFA, histopathology and transmission electron microscopy were performed on the days 3, 7, 14, 21 and 28 after photocoagulation respectively.
Through fundus photography and FFA examination, it was confirmed that the fluorescein leakage of the photocoagulation spot reached its peak on day 21 after photocoagulation. At the same time, histopathological examination was carried out.
Rats with successful modeling were randomly grouped, with 5 rats in each group. The groups were marked as a negative control group and X1-X90 treatment groups respectively. The rats were injected with normal saline and X1-X90 (the doses of X1-X90 were each 0.05 μM) in the vitreous chamber once a day for 1 week. FFA examination was carried out 3 days, 7 days, 14 days and 28 days after administration.

[2] = test system: HUVECs; experiment: Transwell migration inhibition on HUVECs; type: cell-based, human; conditions: HUVEC migration vs blank control
[3] = Half-lives and pharmacokinetic parameters of polypeptides vs HM-1; conditions: in vivo; for half-life: T1/2β (half-life)
[4] = test system: collagen-induced arthritis; experiment: Mouse collagen-induced arthritis (CIA) animal model; type: in vivo; conditions: DBA/1 mice CIA model, dose 4.0 mg/kg, subcutaneous from day 30, n=10; for Clinical score: highest score 16
[5] = test system: carrageenan-induced toe swelling; experiment: Carrageenan-induced toe swelling in rats; type: in vivo; conditions: SD rats; for Swelling degree 1 h: 1 h after carrageenan; for Swelling degree 3 h: 3 h after carrageenan; for Swelling degree 5 h: 5 h after carrageenan; for Swelling degree 7 h: 7 h after carrageenan
Protocol: The rats were injected once a day, and the model group was given the same volume of normal saline for 3 d and fed normally. […] The foot swelling degree was calculated according to the following formula: foot swelling degree (mL)=foot volume after inflammation-foot volume before inflammation. The number of milliliters of overflow liquid was recorded (method: a ballpoint pen is used to circle the protruding point of the right joint as a measurement mark, and the right hind feet of each rat are sequentially placed into the volume measurer, so that the hind limbs are exposed outside the barrel, and the immersion depth is at the coincidence of the circle and the liquid level. After the foot enters the liquid, the liquid level rises, and the volume of overflow liquid is the volume of the right hind foot of the rat, and the normal volume of the right hind foot of each rat is measured in sequence).

[6] = test system: splenic lymphocytes; experiment: Proliferation of splenic lymphocytes in mice (ConA, MTT); type: cell-based; conditions: ConA-stimulated mouse splenic lymphocytes, 48 h
Protocol: Spleens of mice were taken out under aseptic conditions, washed with blank 1640 culture medium 3 times, ground with a 5 mL syringe core, filtered with a 200-mesh sieve, made into a single cell suspension. The suspension was centrifuged (1000 rpm×5 min), and supernatant was removed. Red blood cells were lysed by Tris-NH4Cl, and placed in ice water bath for 4 min and centrifuged (1000 rpm×5 min). The supernatant was removed, and the cells were washed twice with sterile PBS. Finally, RPMI 1640 culture solution (5 mL) containing 10% calf serum was added to suspend the cells. The cells were counted and the cell concentration was adjusted to 5×10^6 cells/mL, and the cells were cultured in a 96-well culture plate.
Blank control group, concanavalin A (ConA) group and dexamethasone (Dex) group were set in the experiment, and polypeptide X1-X90 groups were set as test groups. After 100 μL of splenic lymphocytes suspension per well was added into each group, 100 μL of blank 1640 culture solution was added into the blank control group, ConA was added into the ConA group, Dex was added into the Dex group, and ConA was added into the test groups on the basis of adding different concentrations of polypeptides X1-X90. The cells were static cultured at 37° C. in a cell incubator for 48 h. After the cultivation was completed, 20 μL of MTT was added to each well, and the cultivation was continued for 4 h. Finally, all the solutions in each well were discarded. 100 μL DMSO was added to each well and shaken, and the OD value at 570 nm was detected with a microplate reader. Five parallel experiments were set in each well.

[7] = day 3 after administration, total light spot number was 297, 0.05 μM in the vitreous chamber once a day for 1 week
[8] = day 7 after administration, total light spot number was 186, 0.05 μM in the vitreous chamber once a day for 1 week
[9] = day 14 after administration, total light spot number was 137, 0.05 μM in the vitreous chamber once a day for 1 week
[10] = day 28 after administration, total light spot number was 69, 0.05 μM in the vitreous chamber once a day for 1 week

SMILES	CNV Incidence (%) [1, 7] [%]	Leakage Light spot number [1, 7]	CNV Incidence (%) [1, 8] [%]	Leakage Light spot number [1, 8]	CNV Incidence (%) [1, 9] [%]	Leakage Light spot number [1, 9]	CNV Incidence (%) [1, 10] [%]	Leakage Light spot number [1, 10]	Inhibition rate (%) ([2]; dose 0.05 μM)	Inhibition rate (%) ([2]; dose 0.1 μM)	Inhibition rate (%) ([2]; dose 0.2 μM)	AUC(0-inf) [3] [ng·h/mL]	MRT inf [3] [h]	clearance [3] [mL/min/kg]	half-life [3] [h]	Joint swelling degree (mm) [4] [mm]	Left and right paw swelling degree (mm) [4] [mm]	Clinical score [4]	Swelling degree 1 h ([5]; 2.0 mg/kg once a day for 3 d) [mg]	Swelling degree 3 h ([5]; 2.0 mg/kg once a day for 3 d) [mg]	further results
C[C@H](NC(=O)CNC(=O)[C@H](CCCNC(=N)N)NC(=O)CCCCCCCc1ccccc1N1C(=O)C=CC1=O)C(=O)N[C@@H](CC(=O)O)C(=O)N[C@@H](CCCNC(=N)N)C(=O)N[C@@H](C)C(=O)NCC(=O)NCC(=O)NCC(=O)NCC(=O)N[C@@H](CCCNC(=N)N)C(=O)NCC(=O)N[C@@H](CC(=O)O)C(=O)O [X19] (X52-RGADRAGGGGRGD-OH)	52.19	155	45.70	85	41.61	57	44.93	31	40.99	46.77	54.44	32200 ± 6970	57.6 ± 10.8	0.518	39.95 ± 0.28	0.84 ± 0.18	0.82 ± 0.14	8.72 ± 1.41	0.21 ± 0.13	0.33 ± 0.15	Swelling degree 5 h ([5]; 2.0 mg/kg once a day for 3 d): 0.36 ± 0.17 mg; Swelling degree 7 h ([5]; 2.0 mg/kg once a day for 3 d): 0.32 ± 0.12 mg; Swelling degree 1 h ([5]; 4.0 mg/kg once a day for 3 d): 0.26 ± 0.11 mg; Swelling degree 3 h ([5]; 4.0 mg/kg once a day for 3 d): 0.38 ± 0.17 mg; Swelling degree 5 h ([5]; 4.0 mg/kg once a day for 3 d): 0.42 ± 0.15 mg; Swelling degree 7 h ([5]; 4.0 mg/kg once a day for 3 d): 0.32 ± 0.18 mg; A570 nm/A630 nm ([6]; polypeptide dose 0.05 μM): 0.5093 ± 0.0372; Inhibition rate (%) ([6]; polypeptide dose 0.05 μM): 24.59%; A570 nm/A630 nm ([6]; polypeptide dose 0.1 μM): 0.5027 ± 0.0814; Inhibition rate (%) ([6]; polypeptide dose 0.1 μM): 25.57%; A570 nm/A630 nm ([6]; polypeptide dose 0.2 μM): 0.4978 ± 0.0481; Inhibition rate (%) ([6]; polypeptide dose 0.2 μM): 26.30%
C[C@H](NC(=O)CNC(=O)[C@H](CCCNC(=N)N)NC(=O)CCCCCCCCCCCc1ccccc1N1C(=O)C=CC1=O)C(=O)N[C@@H](CC(=O)O)C(=O)N[C@@H](CCCNC(=N)N)C(=O)N[C@@H](C)C(=O)NCC(=O)NCC(=O)NCC(=O)NCC(=O)N[C@@H](CCCNC(=N)N)C(=O)NCC(=O)N[C@@H](CC(=O)O)C(=O)O [X23] (X68-RGADRAGGGGRGD-OH)	52.86	157	45.70	85	44.53	61	37.68	26	48.22	51.50	52.06	25600 ± 8510	45.8 ± 10.6	0.652	31.72 ± 0.25	0.77 ± 0.17	0.77 ± 0.15	9.15 ± 1.47	0.28 ± 0.17	0.34 ± 0.19	Swelling degree 5 h ([5]; 2.0 mg/kg once a day for 3 d): 0.37 ± 0.11 mg; Swelling degree 7 h ([5]; 2.0 mg/kg once a day for 3 d): 0.35 ± 0.18 mg; Swelling degree 1 h ([5]; 4.0 mg/kg once a day for 3 d): 0.26 ± 0.16 mg; Swelling degree 3 h ([5]; 4.0 mg/kg once a day for 3 d): 0.34 ± 0.19 mg; Swelling degree 5 h ([5]; 4.0 mg/kg once a day for 3 d): 0.38 ± 0.13 mg; Swelling degree 7 h ([5]; 4.0 mg/kg once a day for 3 d): 0.34 ± 0.17 mg; A570 nm/A630 nm ([6]; polypeptide dose 0.05 μM): 0.5946 ± 0.0378; Inhibition rate (%) ([6]; polypeptide dose 0.05 μM): 11.96%; A570 nm/A630 nm ([6]; polypeptide dose 0.1 μM): 0.4982 ± 0.1212; Inhibition rate (%) ([6]; polypeptide dose 0.1 μM): 26.24%; A570 nm/A630 nm ([6]; polypeptide dose 0.2 μM): 0.4363 ± 0.0933; Inhibition rate (%) ([6]; polypeptide dose 0.2 μM): 35.40%
C[C@H](NC(=O)CNC(=O)[C@H](CCCNC(=N)N)NC(=O)CCCCCCCCCc1ccccc1N1C(=O)C=CC1=O)C(=O)N[C@@H](CC(=O)O)C(=O)N[C@@H](CCCNC(=N)N)C(=O)N[C@@H](C)C(=O)NCC(=O)NCC(=O)NCC(=O)NCC(=O)N[C@@H](CCCNC(=N)N)C(=O)NCC(=O)N[C@@H](CC(=O)O)C(=O)O [X21] (X60-RGADRAGGGGRGD-OH)	50.84	151	47.85	89	46.72	64	40.58	28	48.94	50.61	52.23	34000 ± 8190	60.9 ± 9.41	0.49	42.24 ± 0.28	0.81 ± 0.14	0.83 ± 0.16	8.79 ± 1.43	0.23 ± 0.19	0.32 ± 0.17	Swelling degree 5 h ([5]; 2.0 mg/kg once a day for 3 d): 0.39 ± 0.16 mg; Swelling degree 7 h ([5]; 2.0 mg/kg once a day for 3 d): 0.33 ± 0.12 mg; Swelling degree 1 h ([5]; 4.0 mg/kg once a day for 3 d): 0.25 ± 0.17 mg; Swelling degree 3 h ([5]; 4.0 mg/kg once a day for 3 d): 0.33 ± 0.13 mg; Swelling degree 5 h ([5]; 4.0 mg/kg once a day for 3 d): 0.39 ± 0.14 mg; Swelling degree 7 h ([5]; 4.0 mg/kg once a day for 3 d): 0.35 ± 0.18 mg; A570 nm/A630 nm ([6]; polypeptide dose 0.05 μM): 0.5904 ± 0.0399; Inhibition rate (%) ([6]; polypeptide dose 0.05 μM): 12.59%; A570 nm/A630 nm ([6]; polypeptide dose 0.1 μM): 0.5776 ± 0.1193; Inhibition rate (%) ([6]; polypeptide dose 0.1 μM): 14.48%; A570 nm/A630 nm ([6]; polypeptide dose 0.2 μM): 0.4947 ± 0.1055; Inhibition rate (%) ([6]; polypeptide dose 0.2 μM): 26.75%

— patent US20200270309A1, “MALEIMIDE GROUP-MODIFIED ANGIOGENESIS INHIBITOR HM-1 AND USE THEREOF” (NANJING ANJI BIOLOGICAL TECHNOLOGY CO., LTD, priority 2017, published 2020)
